Assay results: patent US12679836B2, “4H-pyrrolo[3,2-c]pyridin-4-one compounds” (Bayer Aktiengesellschaft, priority 2019, dated 2026)

Tests used:
Assay type in all cases: cell-based
Ba/F3-EGFR-insSVD cells = Ba/F3-EGFR-insSVD cells (Homo sapiens, UniProt P00533, DUP768-770, cells depend on it); test: Ba/F3 cell survival assay (Cell Titer-Glo), EGFR-insSVD; conditions: without IL-3, with 10 ng/mL EGF, 48 h; read-out: BA/F3 (insSVD) IC50
Method in brief: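 Ba/F3 cells stably expressing WT EGFR or EGFR-insSVD from retroviral transduction were grown without IL-3 on 10 ng/mL EGF. Cells were plated at 4000 cells/well, treated with compound for 48 h at 37° C, and viability was read by CellTiter-Glo luminescence.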

[1] = target: Ba/F3-EGFR-D770_N771insNPG cells (Homo sapiens, UniProt P00533, INS772GNP, cells depend on it); test: Ba/F3 cell survival assay, EGFR D770_N771insNPG; conditions: without IL-3, without EGF, 48 h; read-out: BA/F3 (insNPG) IC50
Experimental: (§1) 293T cells from ATCC were transfected with pBABEpuro expression constructs for mutant EGFR (V769_D770insASV, D770_N771insNPG, N771_P772insH, H773_V774insNPH, E746_A750del, L858R, D770_N771insSVD C797S, E746_A750del C797S, L858R C797S, L861Q) or mutant ERBB2 (A775_G776insYVMA) and pCL-Eco packaging vector using Fugene-6 transfection reagent from Promega. Plates were incubated at 37° C. for 48 h. Retrovirus was harvested by filtering the media supernatant through a 0.45 μm filter.
(§2) Ba/F3 cells purchased from DSMZ were grown in RPMI+10% FBS+10 ng/mL IL-3 and infected with filtered retroviral supernatant at a 1:2 dilution. Polybrene was added to a concentration of 8 μg/mL, plates were spun for 90 min, and incubated overnight at 37° C. 2 μg/mL puromycin was added to the infected cells 24 h after infection and cells were continually grown in the presence of puromycin and 10 ng/mL IL-3. Following stably expressing Ba/F3 cell lines were generated: Ba/F3-EGFR-V769_D770insASV, Ba/F3-EGFR-D770_N771insNPG, Ba/F3-EGFR-N771_P772insH, Ba/F3-EGFR-H773_V774insNPH, Ba/F3-EGFR-E746_A750del, Ba/F3-EGFR-L858R, Ba/F3-EGFR-D770_N771 insSVD C797S, Ba/F3-EGFR-E746_A750del C797S, Ba/F3-EGFR-L858R C797S, Ba/F3-EGFR L861Q and Ba/F3-ERBB2-A775_G776insYVMA (Ba/F3-vector-control).
(§3) For cell survival assays, Ba/F3 cells were grown to a density of 1-2 million cells per mL, spun down and resuspended in media without IL-3, and replated at a concentration 200,000-500,000 cells per mL. The cells ectopically expressing WT EGFR plated with 10 ng/mL Millipore Culture grade EGF and Ba/F3 cells containing mutant EGFR or Mutant ERBB2 were cultivated without EGF. The cells ectopically expressing pBABEpuro empty vector were plated with 10 ng/mL IL-3.
(§4) 2 days later, cells were plated in 50 μL in a 384 well plate at a concentration of 4000 cells per well for cells assayed in the absence of IL-3 and 2000 cells per well for cells assayed in the presence of IL-3. 100 nL of compound was added to each well using a 100 nL pin head, and plates were incubated at 37° C. for 48 h.
(§5) Cell viability was measured by adding 20 μL of Cell Titer-Glo Luminescent Cell Viability Reagent diluted 1:3 in PBS. Plates were sealed with Perkin Elmer Top-Seal, inverted several times to mix, and immediately centrifuged at 1000 rpm for 2 min. Plates were incubated in low light conditions for 8-10 min and luminescence was measured.

[2] = target: Ba/F3-EGFR-V769_D770insASV cells (Homo sapiens, UniProt P00533, DUP767-769, cells depend on it); test: Ba/F3 cell survival assay, EGFR V769_D770insASV; conditions: without IL-3, without EGF, 48 h; read-out: BA/F3 (ASV) IC50
Experimental: as §1, §2, §3, §4, §5

[3] = target: Ba/F3-EGFR-N771_P772insH cells (Homo sapiens, UniProt P00533, INS771H, cells depend on it); test: Ba/F3 cell survival assay, EGFR N771_P772insH; conditions: without IL-3, without EGF, 48 h; read-out: BA/F3 (EGFR N771_772 insH) IC50
Chain of Ba/F3-EGFR-N771_P772insH cells (P00533 with tags, fused parts or gaps INS771H): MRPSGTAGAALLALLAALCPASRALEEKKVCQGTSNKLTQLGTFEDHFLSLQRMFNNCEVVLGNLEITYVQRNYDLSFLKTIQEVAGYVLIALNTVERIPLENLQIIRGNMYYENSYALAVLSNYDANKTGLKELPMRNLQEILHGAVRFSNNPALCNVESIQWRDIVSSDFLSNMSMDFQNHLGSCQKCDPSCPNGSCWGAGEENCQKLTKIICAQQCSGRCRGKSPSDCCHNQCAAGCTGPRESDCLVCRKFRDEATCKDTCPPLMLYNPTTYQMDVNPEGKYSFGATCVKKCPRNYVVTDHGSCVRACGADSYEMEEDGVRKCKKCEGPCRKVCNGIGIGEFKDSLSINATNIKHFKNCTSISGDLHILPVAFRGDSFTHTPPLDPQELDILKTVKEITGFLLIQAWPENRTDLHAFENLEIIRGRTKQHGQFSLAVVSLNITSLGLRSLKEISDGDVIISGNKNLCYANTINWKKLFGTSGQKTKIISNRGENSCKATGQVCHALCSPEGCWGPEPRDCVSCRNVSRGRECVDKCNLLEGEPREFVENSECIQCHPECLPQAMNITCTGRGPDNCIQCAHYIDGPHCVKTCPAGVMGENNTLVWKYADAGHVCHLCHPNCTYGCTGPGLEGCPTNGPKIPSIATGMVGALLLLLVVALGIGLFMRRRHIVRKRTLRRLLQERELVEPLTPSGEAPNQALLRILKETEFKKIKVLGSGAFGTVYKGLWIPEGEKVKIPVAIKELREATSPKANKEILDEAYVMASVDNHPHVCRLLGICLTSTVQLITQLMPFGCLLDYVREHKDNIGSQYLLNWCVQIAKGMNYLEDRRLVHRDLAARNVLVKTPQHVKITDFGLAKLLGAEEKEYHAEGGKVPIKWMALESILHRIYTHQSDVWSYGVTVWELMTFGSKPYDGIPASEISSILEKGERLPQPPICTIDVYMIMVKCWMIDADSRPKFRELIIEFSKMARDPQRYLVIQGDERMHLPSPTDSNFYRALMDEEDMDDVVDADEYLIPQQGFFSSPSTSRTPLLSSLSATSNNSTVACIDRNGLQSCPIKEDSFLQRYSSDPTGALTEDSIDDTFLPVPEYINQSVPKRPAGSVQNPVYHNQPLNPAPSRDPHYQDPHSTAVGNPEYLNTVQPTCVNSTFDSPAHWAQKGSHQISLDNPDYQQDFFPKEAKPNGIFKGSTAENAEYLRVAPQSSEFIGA
Experimental: as §1, §2, §3, §4, §5

[4] = target: Ba/F3-EGFR-H773_V774insNPH cells (Homo sapiens, UniProt P00533, DUP771-773, cells depend on it); test: Ba/F3 cell survival assay, EGFR H773_V774insNPH; conditions: read-out: BA/F3 (EGFR 773_774insNPH) IC50 [mol/l]; without IL-3, without EGF, 48 h
Chain of Ba/F3-EGFR-H773_V774insNPH cells (P00533 with tags, fused parts or gaps DUP771-773): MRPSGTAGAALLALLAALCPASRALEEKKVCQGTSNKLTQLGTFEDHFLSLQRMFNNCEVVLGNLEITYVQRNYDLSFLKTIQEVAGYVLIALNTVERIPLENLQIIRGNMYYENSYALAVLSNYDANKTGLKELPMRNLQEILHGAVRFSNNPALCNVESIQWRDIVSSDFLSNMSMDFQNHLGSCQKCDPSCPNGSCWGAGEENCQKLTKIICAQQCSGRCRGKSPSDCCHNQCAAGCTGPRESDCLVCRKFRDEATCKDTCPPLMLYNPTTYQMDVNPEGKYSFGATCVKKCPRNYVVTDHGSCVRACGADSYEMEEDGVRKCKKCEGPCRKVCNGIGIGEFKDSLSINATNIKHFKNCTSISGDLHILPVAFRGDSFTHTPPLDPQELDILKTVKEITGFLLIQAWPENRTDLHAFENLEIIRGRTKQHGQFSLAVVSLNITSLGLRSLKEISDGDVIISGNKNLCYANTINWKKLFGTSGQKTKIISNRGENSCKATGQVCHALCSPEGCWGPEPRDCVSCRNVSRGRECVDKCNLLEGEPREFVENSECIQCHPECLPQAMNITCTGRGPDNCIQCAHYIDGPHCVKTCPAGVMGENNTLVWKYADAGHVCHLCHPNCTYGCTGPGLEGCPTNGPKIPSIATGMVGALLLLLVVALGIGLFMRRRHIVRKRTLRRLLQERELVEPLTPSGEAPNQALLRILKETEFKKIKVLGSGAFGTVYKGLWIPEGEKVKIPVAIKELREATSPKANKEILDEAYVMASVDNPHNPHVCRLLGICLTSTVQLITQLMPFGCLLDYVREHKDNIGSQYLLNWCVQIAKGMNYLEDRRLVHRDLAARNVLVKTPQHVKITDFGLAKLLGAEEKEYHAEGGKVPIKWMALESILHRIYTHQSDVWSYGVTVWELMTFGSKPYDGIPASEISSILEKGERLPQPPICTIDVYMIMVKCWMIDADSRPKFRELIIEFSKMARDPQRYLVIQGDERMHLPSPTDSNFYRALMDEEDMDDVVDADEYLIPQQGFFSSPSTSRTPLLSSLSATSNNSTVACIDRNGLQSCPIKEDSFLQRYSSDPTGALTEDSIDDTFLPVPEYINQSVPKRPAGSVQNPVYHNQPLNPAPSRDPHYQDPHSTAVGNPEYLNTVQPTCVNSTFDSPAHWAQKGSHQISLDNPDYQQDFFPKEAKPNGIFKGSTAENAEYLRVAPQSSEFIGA
Experimental: as §1, §2, §3, §4, §5

Ba/F3-EGFR-L858R cells = Ba/F3-EGFR-L858R cells (Homo sapiens, UniProt P00533, L858R, cells depend on it); test: Ba/F3 cell survival assay, EGFR L858R; conditions: without IL-3, without EGF, 48 h; read-out: BA/F3 (EGFR L858R) IC50
Chain of Ba/F3-EGFR-L858R cells (P00533 whole entry L858R): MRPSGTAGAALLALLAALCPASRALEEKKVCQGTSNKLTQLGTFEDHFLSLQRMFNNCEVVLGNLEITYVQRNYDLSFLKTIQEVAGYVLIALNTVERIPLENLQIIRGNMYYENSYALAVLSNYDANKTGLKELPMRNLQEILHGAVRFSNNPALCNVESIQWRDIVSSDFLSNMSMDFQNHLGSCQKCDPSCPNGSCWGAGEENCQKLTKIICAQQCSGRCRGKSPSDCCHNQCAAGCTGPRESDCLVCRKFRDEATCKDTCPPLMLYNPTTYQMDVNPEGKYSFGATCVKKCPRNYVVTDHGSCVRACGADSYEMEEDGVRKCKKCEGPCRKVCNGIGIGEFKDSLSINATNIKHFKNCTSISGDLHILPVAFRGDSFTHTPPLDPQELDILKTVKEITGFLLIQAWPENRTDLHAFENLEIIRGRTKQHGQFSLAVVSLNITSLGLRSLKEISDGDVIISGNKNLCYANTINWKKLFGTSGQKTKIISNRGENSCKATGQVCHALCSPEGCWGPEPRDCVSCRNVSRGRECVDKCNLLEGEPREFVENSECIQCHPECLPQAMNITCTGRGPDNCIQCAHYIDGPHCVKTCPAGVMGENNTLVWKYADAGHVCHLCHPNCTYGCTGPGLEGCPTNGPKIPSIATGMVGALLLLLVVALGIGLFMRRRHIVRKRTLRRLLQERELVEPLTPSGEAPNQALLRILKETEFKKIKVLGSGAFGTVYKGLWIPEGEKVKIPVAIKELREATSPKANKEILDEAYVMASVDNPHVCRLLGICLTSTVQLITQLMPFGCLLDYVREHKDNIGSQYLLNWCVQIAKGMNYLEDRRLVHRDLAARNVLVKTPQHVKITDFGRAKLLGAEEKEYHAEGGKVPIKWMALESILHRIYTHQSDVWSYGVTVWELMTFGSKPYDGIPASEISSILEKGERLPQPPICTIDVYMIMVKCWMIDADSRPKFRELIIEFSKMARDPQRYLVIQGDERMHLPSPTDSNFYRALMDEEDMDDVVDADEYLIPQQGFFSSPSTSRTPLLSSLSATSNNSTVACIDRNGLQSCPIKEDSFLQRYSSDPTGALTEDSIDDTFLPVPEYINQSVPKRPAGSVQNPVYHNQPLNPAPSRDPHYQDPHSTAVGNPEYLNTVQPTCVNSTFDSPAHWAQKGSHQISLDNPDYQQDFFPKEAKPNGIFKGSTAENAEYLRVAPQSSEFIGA
Experimental: as §1, §2, §3, §4, §5

[5] = target: Ba/F3-EGFR-D770_N771 insSVD C797S cells (Homo sapiens, UniProt P00533, DUP768-770/C797S, cells depend on it); test: Ba/F3 cell survival assay, EGFR D770_N771insSVD C797S; conditions: without IL-3, without EGF, 48 h; read-out: BA/F3 (EGFR 0770_N771 insSVD C797S) IC50
Chain of Ba/F3-EGFR-D770_N771 insSVD C797S cells (P00533 with tags, fused parts or gaps DUP768-770/C797S): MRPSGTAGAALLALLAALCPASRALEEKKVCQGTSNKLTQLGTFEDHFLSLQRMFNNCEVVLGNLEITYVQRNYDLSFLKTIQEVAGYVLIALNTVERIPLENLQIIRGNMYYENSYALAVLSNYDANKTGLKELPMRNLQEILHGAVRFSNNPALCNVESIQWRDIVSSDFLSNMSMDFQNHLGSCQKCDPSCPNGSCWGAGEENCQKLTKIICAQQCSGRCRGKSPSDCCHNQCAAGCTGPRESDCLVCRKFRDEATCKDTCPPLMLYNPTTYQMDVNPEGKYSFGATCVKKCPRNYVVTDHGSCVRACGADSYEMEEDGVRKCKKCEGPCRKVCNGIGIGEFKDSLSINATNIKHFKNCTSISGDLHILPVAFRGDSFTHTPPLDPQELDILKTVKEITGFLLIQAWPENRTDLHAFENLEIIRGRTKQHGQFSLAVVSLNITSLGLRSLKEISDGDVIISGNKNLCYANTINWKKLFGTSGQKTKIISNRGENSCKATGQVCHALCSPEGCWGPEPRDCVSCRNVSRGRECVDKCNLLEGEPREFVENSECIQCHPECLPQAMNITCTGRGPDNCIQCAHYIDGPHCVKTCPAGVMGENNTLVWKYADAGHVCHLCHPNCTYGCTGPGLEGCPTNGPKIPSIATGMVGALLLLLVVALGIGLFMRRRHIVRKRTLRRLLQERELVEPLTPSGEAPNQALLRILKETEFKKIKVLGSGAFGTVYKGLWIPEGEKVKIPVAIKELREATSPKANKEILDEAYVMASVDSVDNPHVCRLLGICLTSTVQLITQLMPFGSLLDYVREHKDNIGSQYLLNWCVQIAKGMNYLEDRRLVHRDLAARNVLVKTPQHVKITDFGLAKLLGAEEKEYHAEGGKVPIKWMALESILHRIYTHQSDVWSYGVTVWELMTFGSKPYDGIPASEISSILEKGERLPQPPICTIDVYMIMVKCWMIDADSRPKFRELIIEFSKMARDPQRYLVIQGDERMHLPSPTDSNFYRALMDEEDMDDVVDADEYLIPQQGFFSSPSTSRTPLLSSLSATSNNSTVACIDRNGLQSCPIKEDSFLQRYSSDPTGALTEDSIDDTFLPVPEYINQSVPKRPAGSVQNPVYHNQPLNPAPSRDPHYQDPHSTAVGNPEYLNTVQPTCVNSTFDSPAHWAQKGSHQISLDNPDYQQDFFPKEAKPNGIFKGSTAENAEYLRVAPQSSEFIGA
Experimental: as §1, §2, §3, §4, §5

SMILES	GI50 (Ba/F3-EGFR-insSVD cells)	GI50 [1]	GI50 [2]	GI50 [3]	GI50 [4]	GI50 (Ba/F3-EGFR-L858R cells)	GI50 [5]
COc1c(Cl)cccc1Nc1c(-c2ccncc2OC[C@@H]2COCCO2)[nH]c2c1C(=O)NCC2 (single isomer, unassigned) [Example 2]	7.12 nM	4.44 nM	4.66 nM	7.48 nM	28.2 nM	0.525 nM	8.22 nM
COc1c(F)cccc1Nc1c(-c2ccncc2OCC2COCCO2)[nH]c2c1C(=O)NCC2 (single isomer, unassigned) [Example 5, 2-{3-[(1,4-dioxan-2-yl)methoxy]pyridin-4-yl}-3-(3-fluoro-2-methoxyanilino)-1,5,6,7-tetrahydro-4H-pyrrolo[3,2-c]pyridin-4-one]	9.73 nM	26.3 nM	28.7 nM	11.5 nM	79.3 nM	2.03 nM	37 nM
O=C1NCCc2[nH]c(-c3ccncc3OCC3COCCO3)c(Nc3cccc(Cl)c3Cl)c21 (single isomer, unassigned) [Example 8, 3-(2,3-dichloroanilino)-2-{3-[(1,4-dioxan-2-yl)methoxy]pyridin-4-yl}-1,5,6,7-tetrahydro-4H-pyrrolo[3,2-c]pyridin-4-one]	8.18 nM	11.6 nM	9.62 nM	4.91 nM	23.1 nM	0.701 nM	14.6 nM
COc1c(F)cccc1Nc1c(-c2ccncc2OCC2CN(C)CCO2)[nH]c2c1C(=O)NCC2 (single isomer, unassigned) [Example 14, 3-(3-fluoro-2-methoxyanilino)-2-{3-[(4-methylmorpholin-2-yl)methoxy]pyridin-4-yl}-1,5,6,7-tetrahydro-4H-pyrrolo[3,2-c]pyridin-4-one]	10.5 nM	12.5 nM	16.4 nM	7.6 nM	65.8 nM	1.22 nM	24.9 nM
COc1c(Cl)cccc1Nc1c(-c2ccncc2OCC2COC(C)(C)CO2)[nH]c2c1C(=O)NCC2 (single isomer, unassigned) [Example 32, 3-(3-chloro-2-methoxyanilino)-2-{3-[(5,5-dimethyl-1,4-dioxan-2-yl)methoxy]pyridin-4-yl}-1,5,6,7-tetrahydro-4H-pyrrolo[3,2-c]pyridin-4-one]		9.38 nM	13.2 nM	11 nM	47.3 nM	1.06 nM	15.8 nM
Cc1c(Cl)cccc1Nc1c(-c2ccncc2OCC2COC(C)(C)CO2)[nH]c2c1C(=O)NCC2 (single isomer, unassigned) [Example 46, 3-(3-chloro-2-methyl-anilino)-2-[3-[(5,5-dimethyl-1,4-dioxan-2-yl)methoxy]-4-pyridyl]-1,5,6,7-tetrahydropyrrolo[3,2-c]pyridin-4-one]	10.1 nM	14.3 nM	11.7 nM	5.77 nM	38.9 nM	0.957 nM	
Cc1c(F)cccc1Nc1c(-c2ccncc2OCC2COCCO2)[nH]c2c1C(=O)NCC2 (single isomer, unassigned) [Example 48, 2-[3-(1,4-dioxan-2-ylmethoxy)-4-pyridyl]-3-(3-fluoro-2-methyl-anilino)-1,5,6,7-tetrahydropyrrolo[3,2-c]pyridin-4-one]	18.8 nM	42.4 nM	41.8 nM	17.6 nM	142 nM	2.36 nM	
Cc1c(Cl)cccc1Nc1c(-c2ccncc2OC[C@H]2COCCO2)[nH]c2c1C(=O)NCC2 (single isomer, unassigned) [Example 50]	8.82 nM	11.3 nM	10.4 nM	7.42 nM	40.3 nM	1.07 nM	26.7 nM
COc1c(F)cccc1Nc1c(-c2ccncc2OC[C@@H]2COCCN2C)[nH]c2c1C(=O)NCC2 [Example 20, 3-(3-fluoro-2-methoxyanilino)-2-(3-{[(3S)-4-methylmorpholin-3-yl]methoxy}pyridin-4-yl)-1,5,6,7-tetrahydro-4H-pyrrolo[3,2-c]pyridin-4-one]	8.25 nM	14.7 nM	11.7 nM	6.59 nM	56.7 nM		12.2 nM
COc1c(Cl)cccc1Nc1c(-c2ccncc2OC[C@@H]2COCCN2C)[nH]c2c1C(=O)NCC2 [Example 21, 3-(3-chloro-2-methoxyanilino)-2-(3-{[(3S)-4-methylmorpholin-3-yl]methoxy}pyridin-4-yl)-1,5,6,7-tetrahydro-4H-pyrrolo[3,2-c]pyridin-4-one]	3.49 nM	5.65 nM	7.78 nM	4.22 nM	27.6 nM	0.644 nM	7.84 nM
Cc1c(Cl)cccc1Nc1c(-c2ccncc2OC[C@@H]2CN(C)CCO2)[nH]c2c1C(=O)NCC2 [Example 42, 3-(3-chloro-2-methylanilino)-2-(3-{[(2S)-4-methylmorpholin-2-yl]methoxy}pyridin-4-yl)-1,5,6,7-tetrahydro-4H-pyrrolo[3,2-c]pyridin-4-one]	19.8 nM	12 nM	14.1 nM	6.01 nM	48.5 nM	1.51 nM	19.3 nM
CCc1c(Cl)cccc1Nc1c(-c2ccncc2OC[C@@H]2CN(C)CCO2)[nH]c2c1C(=O)NCC2 [Example 56, 3-(3-chloro-2-ethylanilino)-2-(3-{[(2S)-4-methylmorpholin-2-yl]methoxy}pyridin-4-yl)-1,5,6,7-tetrahydro-4H-pyrrolo[3,2-c]pyridin-4-one]	11.9 nM	6.96 nM	14.1 nM	7.36 nM	48.9 nM	1.34 nM	14 nM
